Measured values published in ChEMBL document CHEMBL5137024, “Discovery of novel coumarin-indole derivatives as tubulin polymerization inhibitors with potent anti-gastric cancer activities” (Eur J Med Chem, 2022).

Tests used:
MGC-803 = assay: Antiproliferative activity against human MGC-803 cells assessed as reduction in cell viability incubated for 48 hrs by MTT assay; assay type: functional, cell-based; settings: Homo sapiens, MGC-803, 48 h
KYSE-450 = assay: Antiproliferative activity against human KYSE-450 cells assessed as reduction in cell viability incubated for 48 hrs by MTT assay; assay type: functional, cell-based; settings: KYSE-450, 48 h
HCT-116 = assay: cells; settings: Homo sapiens, HCT-116, 48 h

Row | SMILES | IC50 (MGC-803) [µM] | IC50 (HCT-116) [µM] | IC50 (KYSE-450) [µM]
1 | O=c1cc(-n2ccc3cc([N+](=O)[O-])ccc32)c2ccccc2o1 | > 20 | > 20 | > 20
2 | COc1cc2c(c(OC)c1OC)-c1ccc(OC)c(=O)cc1[C@@H](NC(C)=O)CC2 [COLCHICINE] |  | 0.108 | 0.122
3 | COc1ccc2[nH]cc(C(=O)c3cc(=O)oc4ccccc34)c2c1 | > 20 | > 20 | > 20
4 | Cn1ccc2ccc(Nc3cc(=O)oc4ccccc34)cc21 | 1.58 | 2.16 | 5.46
5 | COc1ccc2c(c1)c(C=O)cn2-c1cc(=O)oc2ccccc12 | > 20 | > 20 | > 20
6 | COc1ccc2c(ccn2-c2cc(=O)oc3ccccc23)c1 | 8.14 | 17.4 | 16.1
7 | O=c1cc(-n2ccc3cc(O)ccc32)c2ccccc2o1 | 12.9 | 11.9 | 17.9
8 | O=Cc1ccc2c(ccn2-c2cc(=O)oc3ccccc23)c1 | 18.1 | 11.4 | 10.7
9 | CCn1ccc2cc(-c3cc(=O)oc4ccccc34)ccc21 | 1.21 | 0.98 | 0.84
10 | CCn1ccc2cc(Nc3cc(=O)oc4ccccc34)ccc21 | 6.04 | 3.05 | > 20
11 | O=c1cc(-n2ccc3ccccc32)c2ccccc2o1 | > 20 | > 20 | > 20
12 | CC(C)(C)OC(=O)n1c(-c2cc(=O)oc3ccccc23)cc2ccccc21 | 1.18 | 3.38 | 2.18
13 | Cc1ccc2[nH]cc(C(=O)c3cc(=O)oc4ccccc34)c2c1 | > 20 | > 20 | > 20
14 | O=c1cc(-c2ccc3[nH]ccc3c2)c2ccccc2o1 | 1.56 | 0.24 | 2.1
15 | O=C(c1c[nH]c2ccccc12)c1cc(=O)oc2ccccc12 | > 20 | > 20 | > 20

Further compounds by falling IC50 (MGC-803), results first:

Row | IC50 (MGC-803) [µM] | IC50 (HCT-116) [µM] | SMILES | IC50 (KYSE-450) [µM]
16 | 0.65 | 0.48 | O=c1cc(-c2cc3ccccc3[nH]2)c2ccccc2o1 | 0.71
17 | 0.26 | 2.66 | O=c1cc(Nc2ccc3[nH]ccc3c2)c2ccccc2o1 | 0.589
18 | 0.21 | 6.25 | O=c1cc(Nc2ccc3c(ccn3Cc3ccccc3)c2)c2ccccc2o1 | > 20
19 | 0.18 | 0.18 | CC(C)(C)OC(=O)n1cc(-c2cc(=O)oc3ccccc23)c2ccccc21 | 0.21
20 | 0.168 | 0.514 | CN(c1ccc2ccn(C)c2c1)c1cc(=O)oc2ccccc12 | 0.472
21 | 0.11 | 0.27 | Cn1ccc2cc(Nc3cc(=O)oc4ccccc34)ccc21 | 0.31
22 | 0.087 | 0.102 | CCN(c1ccc2c(ccn2C)c1)c1cc(=O)oc2ccccc12 | 0.128
23 | 0.02 | 7.49 | O=c1cc(Nc2ccc3cc[nH]c3c2)c2ccccc2o1 | > 20
24 | 0.014 | 0.05 | CN(c1ccc2[nH]ccc2c1)c1cc(=O)oc2ccccc12 | 0.069
25 | 0.013 | 0.027 | CCn1ccc2cc(N(C)c3cc(=O)oc4ccccc34)ccc21 | 0.058
